# From US5116855A, “Rhodanine derivatives and pharmaceutical compositions” (Nisshin Flour Milling Co., Ltd., priority 1989, dated 1992)
# Molecular target: T1, aldose reductase (Rattus norvegicus, UniProt P07943)
# T1 construct: the lenses were excised and homogenized in cold distilled water; from tissue; host or cells: lens of male SD rats, homogenate supernatant (crude enzyme)
# Experiment: Inhibitory activity against aldose reductase (crude enzyme from rat lenses, NADPH oxidation at 340 nm, D,L-glyceraldehyde substrate)
# Format: biochemical
# Conditions: aldose reductase from SD rat lenses, pH 6.2, 30° C.; for inhibition at 10 µM: pH 6.2, 10^-5 M; for inhibition at 10 µM / inhibition at 1 µM: read-out: Percentage of inhibition (%); for inhibition at 1 µM: pH 6.2, 10^-6 M
# Protocol: The compounds of the present invention were evaluated for the inhibitory activity against aldose reductase according to the following assay procedure.
# Enzyme activity was assayed according to the modification [Biochemical Pharmacology, 25, 2505 (1976)] of the method described in J. Biol. Chem., 240, 877-882 (1965).
# SD strain male rats were sacrificed by decapitation, the lenses were excised and homogenized in cold distilled water. The homogenate was then centrifuged and the supernatant was used as the crude aldose reductase solution.
# Separately, a 0.1 M sodium phosphate buffer (pH 6.2) containing 0.4 M ammonium sulfate was prepared at 30° C. In this buffer were dissolved the present compound, the crude aldose reductase solution and nicotinamide-adenine dinucleotide phosphate, reduced form (NADPH). The mixture was preincubated at 30° C. for 3 minutes and the reaction was initiated by addition of D,L-glyceraldehyde. In this case, the concentration of the present compound dissolved was 10^-5 M and 10^-6 M, respectively. The total amount of the assay mixture was 1.0 ml, containing 0.16 mM of NADPH, 10 mM of D,L-glyceraldehyde and 0.010-0.016 units of aldose reductase.
# The inhibitory activity of the present compounds against aldose reductase was measured using each 1.0 ml of the reaction mixture containing the present compound in the above concentration. In this measurement, the rate of NADPH oxidation was followed by recording the decrease in absorbance at 340 nm. The inhibitory activity of the present compounds against aldose reductase as measured was expressed in percentage of inhibition (%) as a relative activity based on a control value.
Compound,inhibition at 10 µM [%],inhibition at 1 µM [%],Percentage of inhibition (%) (10^-5 M),Percentage of inhibition (%) (10^-6 M)
"CCOC(=O)COc1ccc(C=CC(C)=C2SC(=S)N(C)C2=O)cc1OC (single isomer, unassigned) [55 Isomer B]",,,47.5,24.3
"O=C(O)CCC(C=Cc1cccs1)=C1SC(=S)NC1=O [Example 30, 6-(2-Thienyl)-4-(4-oxo-2-thioxo-5-thiazolidinylidene)-5-hexenoic acid]",73,,,
"CCCCCCC(C=Cc1ccc(C(=O)O)cc1)=C1SC(=S)NC1=O (single isomer, unassigned) [26 Isomer B]",,,52.1,
"COC(=O)COc1ccc(C(C)C)cc1C=CC(C)=C1SC(=S)NC1=O (single isomer, unassigned) [62 Isomer B]",,,66.7,
"O=C1NC(=S)SC1=Cc1ccc(OCCCCc2nnn[nH]2)cc1 [Example 20, 5-{4-[4-(1H-Tetrazol-5-yl)butyloxy]benzylidene}-4-oxo-2-thioxothiazolidine]",84,43.9,,
Ethyl 4-[3-(4-oxo-2-thioxo-5-thiazolidinylidene)-1-butenyl]-methoxyphenoxyacetate [Example 15],,,66.7,35.3

# Further lines, results first:
inhibition at 10 µM [%],inhibition at 1 µM [%],Percentage of inhibition (%) (10^-5 M),Percentage of inhibition (%) (10^-6 M),Compound
69.1,,,,"COC(=O)COc1c(OC)cc(C=CC(C)=C2SC(=S)NC2=O)cc1OC [Example 48, Methyl 2,6-dimethoxy-4-[3-(4-oxo-2-thioxo-5-thiazolinylidene)-1-butenyl]phenoxyacetate]"
95.8,86.1,,,"CC(C=Cc1cc(Br)ccc1OCC(=O)O)=C1SC(=S)NC1=O [Example 79, 4-Bromo-2-[3-(4-oxo-2-thioxo-5-thiazolinylidene)-1-butenyl]phenoxyacetic acid]"
54.2,33.8,,,"COC(=O)COc1ccc(C=CC(C)=C2SC(=S)NC2=O)cc1OC [Example 42, Methyl 2-methoxy-4-[3-(4-oxo-2-thioxo-5-thiazolinylidene)-1-butenyl]phenoxyacetate]"
62.6,50.9,,,"CCOC(=O)COc1ccccc1C=CC(C)=C1SC(=S)NC1=O [Example 39, Ethyl 2-[3-(4-oxo-2-thioxo-5-thiazolinylidene)-1-butenyl]phenoxacetate]"
39.1,,,,"CCOc1cc(C=CC(C)=C2SC(=S)NC2=O)ccc1OCC(=O)OC [Example 44, Methyl 2-ethoxy-4-[3-(4-oxo-2-thioxo-5-thiazolinylidene)-1-butenyl]phenoxyacetate]"
